Consider one compound from US9827219B2, “Compositions and methods for lowering levels of high-sensitivity C-reactive protein (HS-CRP) in a subject” (priority 2012, dated 2017).

One assay has as its system Lp-PLA2. As to the kind of experiment: ANCHOR study, Lp-PLA2. The class given is in vivo, human. As to conditions: ANCHOR ITT, week 12. The source says:
(§1) Parameters (a)-(y) can be measured in accordance with any clinically acceptable methodology. For example, triglycerides, total cholesterol, HDL-C and fasting blood sugar can be sample from serum and analyzed using standard photometry techniques. VLDL-TG, LDL-C and VLDL-C can be calculated or determined using serum lipoprotein fractionation by preparative ultracentrifugation and subsequent quantitative analysis by refractometry or by analytic ultracentrifugal methodology. Apo A1, Apo B and hsCRP can be determined from serum using standard nephelometry techniques. Lipoprotein (a) can be determined from serum using standard turbidimetric immunoassay techniques. LDL particle number and particle size can be determined using nuclear magnetic resonance (NMR) spectrometry. Remnants lipoproteins and LDL-phospholipase A2 can be determined from EDTA plasma or serum and serum, respectively, using enzymatic immunoseparation techniques. Oxidized LDL, intercellular adhesion molecule-1 and interleukin-2 levels can be determined from serum using standard enzyme immunoassay techniques. These techniques are described in detail in standard textbooks, for example Tietz Fundamentals of Clinical Chemistry, 6th Ed. (Burtis, Ashwood and Borter Eds.), WB Saunders Company.
A multi-center, placebo-controlled, randomized, double-blind, 12-week study was performed to evaluate the efficacy and safety of >96% E-EPA in patients with fasting triglyceride levels ≧200 mg/dl and <500 mg/dl despite statin therapy (the mean of two qualifying entry values needed to be ≧185 mg/dl and at least one of the values needs to be ≧200 mg/dl). The primary objective of the study was to determine the efficacy of >96% E-EPA 2 g daily and 4 g daily, compared to placebo, in lowering fasting TG levels in patients with high risk for cardiovascular disease and with fasting TG levels ≧200 mg/dL and <500 mg/dL, despite treatment to LDL-C goal on statin therapy. […]

The next assay deals with hsCRP. As to the kind of experiment: MARINE study, hsCRP (also by concomitant statin use). It is filed as in vivo, human.
From the text: as §1
A multi-center, placebo-controlled randomized, double-blind, 12-week study with an open-label extension was performed to evaluate the efficacy and safety of AMR101 in patients with fasting triglyceride levels ≧500 mg/dL. The primary objective of the study was to determine the efficacy of AMR101 2 g daily and 4 g daily, compared to placebo, in lowering fasting TG levels in patients with fasting TG levels ≧500 mg/dL and ≦1500 mg/dL (≧5.65 mmol/L and ≦16.94 mmol/L).
The population for this study was men and women (women of childbearing potential will need to be on contraception or practice abstinence)>18 years of age with a body mass index ≦45 kg/m^2 who were not on lipid-altering therapy or were currently on lipid-altering therapy. Patients currently on statin therapy (with or without ezetimibe) were evaluated by the investigator as to whether this therapy can be safely discontinued at screening, or if it should be continued. If statin therapy (with or without ezetimibe) was to be continued, dose(s) must have been stable for ≧4 weeks prior to randomization. Patients taking non-statin, lipid-altering medications (niacin >200 mg/day, fibrates, fish oil, other products containing omega-3 fatty acids, or other herbal products or dietary supplements with potential lipid-altering effects), either alone or in combination with statin therapy (with or without ezetimibe), must have been able to safely discontinue non-statin, lipid-altering therapy at screening.
Approximately 240 patients were randomized at approximately 50 centers in North America, South America, Central America, Europe, India, and South Africa. The study was a 58- to 60-week, Phase 3, multi-center study consisting of 3 study periods: (1) A 6- to 8-week screening period that included a diet and lifestyle stabilization and washout period and a TG qualifying period; (2) A 12-week, double-blind, randomized, placebo-controlled treatment period; and (3) A 40-week, open-label, extension period.
After confirmation of qualifying fasting TG values, eligible patients entered a 12-week, randomized, double-blind treatment period. At Visit 4 (Week 0), patients were randomly assigned to 1 of the following treatment groups: • AMR101 2 g daily, • AMR101 4 g daily, or • Placebo.
Eligible patients were randomly assigned at Visit 4 (Week 0) to receive orally AMR101 2 g daily, AMR101 4 g daily, or placebo for the 12-week double-blind treatment period. AMR101 was provided in 1 g liquid-filled, oblong, gelatin capsules. The matching placebo capsule was filled with light liquid paraffin and contained 0 g of AMR101. […]

In the case of `CC/C=C\C/C=C\C/C=C\C/C=C\C/C=C\CCCC(=O)OCC` [AMR101, all-cis eicosa-5,8,11,14,17-pentaenoic acid ethyl ester], the entries for the “Lp-PLA2 change from baseline (median)” value in the assay on Lp-PLA2 (2 g/day) and in the assay on Lp-PLA2 (4 g/day) were −1.8% and −12.8%, respectively. For the same compound, the “Lp-PLA2 end-of-treatment value (median)” value in the assay on Lp-PLA2 (4 g/day) was found to be 160.0 ng/mL. Moreover, the “hsCRP end-of-treatment value, median” value in the assay on hsCRP (MARINE ITT, 2 g/day, week 12) was 2.4 mg/L; in the assay with hsCRP (MARINE ITT, 4 g/day, week 12) it was 2.2 mg/L; with hsCRP (MARINE, no statin, AMR101 2 g/day, week 12, baseline 2.2), 2.5 mg/L; in the assay with hsCRP (MARINE, no statin, AMR101 4 g/day, week 12, baseline 2.2), 2.2 mg/L; in the assay on hsCRP (MARINE, statin, AMR101 2 g/day, week 12, baseline 1.5), 1.6 mg/L; in the assay with hsCRP (MARINE, statin, AMR101 4 g/day, week 12, baseline 1.9), 1.3 mg/L. For the same compound, in the assay with hsCRP (MARINE ITT, 4 g/day, week 12), the “hsCRP change from baseline (median)” value is on record as −2.5%. For the same compound, the “hsCRP median placebo-adjusted % change from baseline” value with hsCRP (MARINE, no statin, AMR101 2 g/day vs placebo, P 0.8297) is −2.7%; in the assay on hsCRP (MARINE, no statin, AMR101 4 g/day vs placebo, P 0.0311), −27.4%; with hsCRP (MARINE, statin, AMR101 2 g/day vs placebo, P 0.1707) it was −33.2%; in the assay with hsCRP (MARINE, statin, AMR101 4 g/day vs placebo, P 0.0098), −67.9%. Moreover, the “hsCRP change from baseline, median %” value in the assay on hsCRP (MARINE, no statin, AMR101 2 g/day, week 12) is recorded as 31.7%; with hsCRP (MARINE, no statin, AMR101 4 g/day, week 12) it was 0.0%; in the assay on hsCRP (MARINE, statin, AMR101 2 g/day, week 12), 11.7%; in the assay on hsCRP (MARINE, statin, AMR101 4 g/day, week 12), −30.6%. The “hsCRP median placebo-adjusted change from baseline” value in the assay with hsCRP (MARINE, 2 g/day, with concomitant statin therapy) is recorded as “statistically insignificant”; in the assay on hsCRP (MARINE, 2 g/day, without concomitant statin therapy), “statistically insignificant”; in the assay with hsCRP (MARINE, 4 g/day, with concomitant statin therapy), −67.9%; with hsCRP (MARINE, 4 g/day, without concomitant statin therapy), −27.4%.
